Reference: patent publication US20260042764A1, “COMPOSITIONS AND METHODS FOR INHIBITION OF KRAS” (TheRas, Inc., priority 2022, published 2026)
pIC50: −log10 of the molar value.

Legend:
[1] = target: T1, Avi-KRAS G12V (1-169) GppNHp/RAF1 RBD-3xFLAG (52-151) (Homo sapiens, UniProt P01116, G12V); assay: Raf1-KRAS G12V-GppNHP disruption HTRF assay (Biological Example 1); format: binding
T1 construct: Avi-KRAS G12V (1-169)
In short: (§1)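 First, protein mix in Tris pH 7.5 buffer with NaCl, MgCl2, BSA, Tween and 10% DMSO is incubated 1 h at room temperature. Next, reagent mix is added and incubated a further 1 h at room temperature. Finally, HTRF is read and activity normalized to DMSO.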

GP2d cells (KRAS G12D) = assay: Cell-based pERK HTRF assay in GP2d cell (Biological Example 2); conditions: GP2d (KRAS G12D) cells, pERK HTRF
In short: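 Cells grown in DMEM with 10% FBS were exposed to compound for 60 min at 0.25% DMSO, using a 9-point half-log series starting at 1 μM or 100 nM. Lysates were then mixed with d2 and Eu cryptate antibodies for 4–24 h at room temperature, and pERK was read by HTRF.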

[2] = target: T2, Avi-KRAS WT (1-169) GppNHp/RAF1 RBD-3xFLAG (52-151) (Homo sapiens, UniProt P01116); assay: Raf1-KRAS WT-GppNHP disruption HTRF assay (Biological Example 1); format: binding
T2 construct: Avi-KRAS WT (1-169)
In short: as §1

[3] = target: T3, Avi-KRAS G12D (1-169) GppNHp/RAF1 RBD-3xFLAG (52-151) (Homo sapiens, UniProt P01116, G12D); assay: Raf1-KRAS G12D-GppNHP disruption HTRF assay (Biological Example 1); format: binding
T3 construct: Avi-KRAS G12D (1-169)
In short: as §1

[4] = target: T4, Avi-KRAS G12R (1-169) GppNHp/RAF1 RBD-3xFLAG (52-151) (Homo sapiens, UniProt P01116, G12R); assay: Raf1-KRAS G12R-GppNHP disruption HTRF assay (Biological Example 1); format: binding
T4 construct: Avi-KRAS G12R (1-169)
In short: as §1

SW620 cells (KRAS G12V) = assay: Cell-based pERK HTRF assay in SW620 cell (Biological Example 4); conditions: pERK HTRF
In short: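 This assay measures inhibition of ERK phosphorylation downstream of KRAS G12V in intact SW620 cells. Compounds are applied for 4 h over nine half-log concentrations starting at 1 μM, and pERK is quantified by HTRF.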

[5] = KRAS G12V, GppNHp-loaded, class symbols
[6] = KRAS WT, GppNHp-loaded, class symbols
[7] = KRAS G12D, GppNHp-loaded, class symbols
[8] = KRAS G12R, GppNHp-loaded, class symbols
[9] = Homo sapiens, SW-620, SW620 (KRAS G12V) cells, class symbols
[10] = KRAS G12V, GppNHp-loaded, Table 11
[11] = KRAS WT, GppNHp-loaded, Table 11
[12] = KRAS G12D, GppNHp-loaded, Table 11
[13] = KRAS G12R, GppNHp-loaded, Table 11
[14] = Homo sapiens, SW-620, SW620 (KRAS G12V) cells

T3 sequence (P01116 1-169 isoform P01116-2 G12D): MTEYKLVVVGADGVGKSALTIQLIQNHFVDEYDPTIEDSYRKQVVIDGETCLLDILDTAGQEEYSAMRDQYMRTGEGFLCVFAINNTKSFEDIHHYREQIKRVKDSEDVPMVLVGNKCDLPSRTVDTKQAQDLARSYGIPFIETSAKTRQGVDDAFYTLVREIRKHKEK
T4 sequence (P01116 1-169 isoform P01116-2 G12R): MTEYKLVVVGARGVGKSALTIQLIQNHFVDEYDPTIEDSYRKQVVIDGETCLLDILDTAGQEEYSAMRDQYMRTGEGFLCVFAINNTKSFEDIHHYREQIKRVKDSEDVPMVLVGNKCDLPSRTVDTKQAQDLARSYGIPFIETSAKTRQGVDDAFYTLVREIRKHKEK
T1 sequence (P01116 1-169 isoform P01116-2 G12V): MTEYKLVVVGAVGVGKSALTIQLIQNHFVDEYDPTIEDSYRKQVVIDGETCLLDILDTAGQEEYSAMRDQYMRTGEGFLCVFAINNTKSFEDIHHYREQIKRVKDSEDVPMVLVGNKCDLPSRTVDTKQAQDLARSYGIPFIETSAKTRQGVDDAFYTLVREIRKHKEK
T2 sequence (P01116 1-169 isoform P01116-2): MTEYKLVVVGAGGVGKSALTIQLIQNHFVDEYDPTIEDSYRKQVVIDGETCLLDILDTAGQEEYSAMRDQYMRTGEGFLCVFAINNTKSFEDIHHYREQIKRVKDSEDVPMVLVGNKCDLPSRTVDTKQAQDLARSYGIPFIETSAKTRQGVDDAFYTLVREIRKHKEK

Row | Compound | pIC50 [1, 10] | pIC50 (GP2d cells (KRAS G12D); GP2d) | pIC50 [2, 11] | pIC50 [3, 12] | pIC50 [4, 13] | pIC50 (SW620 cells (KRAS G12V); [14]) | pIC50 ([1]; KRAS G12V-GppNHp/RAF1 RBD HTRF) | pIC50 ([2]; KRAS WT-GppNHp/RAF1 RBD HTRF) | pIC50 ([3]; KRAS G12D-GppNHp/RAF1 RBD HTRF) | pIC50 ([4]; KRAS G12R-GppNHp/RAF1 RBD HTRF) | other results
1 | CCN(c1nc(OC[C@@]23CCCN2C[C@H](F)C3)nc2c(F)c(-c3ccc(F)c4sc(N)c(C#N)c34)c(C(F)(F)F)cc12)[C@@H]1C[C@@H](C)N(C(=O)C2COC2)C1 (atropisomer, axis not shown) [Compound 629] |  |  |  |  |  |  |  |  |  |  | pIC50 [1, 5]: 6.00 to 7.00; pIC50 (GP2d cells (KRAS G12D); GP2d, class symbols): > 7.00; pIC50 [2, 6]: 6.00 to 7.00; pIC50 [3, 7]: 6.00 to 7.00; pIC50 [4, 8]: 6.00 to 7.00; pIC50 (SW620 cells (KRAS G12V); [9]): > 7.00
2 | CO[C@@H]1C[C@@H](COc2nc(N(C)[C@H]3CCN(C(C)=O)[C@H]3C)c3cc(C(F)(F)F)c(-c4ccc(F)c5sc(N)c(C#N)c45)c(F)c3n2)N(C)C1 [Compound 238] | < 5.00 | < 6.00 | < 5.00 | < 5.00 | < 5.00 | < 6.00 |  |  |  |  | 
3 | CCN(c1nc(OC[C@H]2C[C@@H](OC)CN2C)nc2c(F)c(-c3ccc(F)c4sc(N)c(C#N)c34)c(C(F)(F)F)cc12)[C@H]1CCN(C(=O)C(C)C)C1 [Compound 592] |  |  |  |  |  |  |  |  |  |  | pIC50 [1, 5]: 5.00 to 6.00; pIC50 (GP2d cells (KRAS G12D); GP2d, class symbols): > 7.00; pIC50 [2, 6]: 5.00 to 6.00; pIC50 [3, 7]: 5.00 to 6.00; pIC50 [4, 8]: 5.00 to 6.00; pIC50 (SW620 cells (KRAS G12V); [9]): 6.00 to 7.00
4 | CN(CC(F)(F)F)c1nc(OC[C@@]23CCCN2C[C@H](F)C3)nc2c(F)c(-c3ccc(F)c4sc(N)c(C#N)c34)c(C(F)(F)F)cc12 [Compound 165] | 6.00 to 7.00 | > 7.00 | 6.00 to 7.00 | 6.00 to 7.00 | 6.00 to 7.00 | > 7.00 |  |  |  |  | 
5 | N#Cc1c(N)sc2c(F)ccc(-c3c(C(F)(F)F)cc4c(N5CCOCC5)nc(OC[C@@]56CCCN5C[C@H](F)C6)nc4c3F)c12 (single isomer, unassigned) [Compound 199] | < 5.00 |  | < 5.00 | < 5.00 | < 5.00 |  |  |  |  |  | pIC50 (GP2d cells (KRAS G12D)): < 6.00; pIC50 (SW620 cells (KRAS G12V); SW620 (KRAS G12V) cells): < 6.00
6 | CCN(c1nc(OC[C@@]23CCCN2C[C@H](F)C3)nc2c(F)c(-c3ccc(F)c4sc(N)c(C#N)c34)c(C(F)(F)F)cc12)[C@H]1C[C@@H](C)N(C(=O)N2CC(OC)C2)C1 (atropisomer, axis not shown) [Compound 734] |  |  |  |  |  |  |  |  |  |  | pIC50 [1, 5]: 6.00 to 7.00; pIC50 (GP2d cells (KRAS G12D); GP2d, class symbols): > 7.00; pIC50 [2, 6]: 6.00 to 7.00; pIC50 [3, 7]: 6.00 to 7.00; pIC50 [4, 8]: 6.00 to 7.00; pIC50 (SW620 cells (KRAS G12V); [9]): > 7.00
7 | C[C@@H]1[C@H](N(C)c2nc(OC[C@@]34CCCN3C[C@H](F)C4)nc3c(F)c(-c4ccc(F)c5sc(N)c(C#N)c45)c(C(F)(F)F)cc23)CCN1C(=O)CF [Compound 461] |  |  |  |  |  | > 7.00 | 6.00 to 7.00 | > 7.00 | > 7.00 | 6.00 to 7.00 | pIC50 (GP2d cells (KRAS G12D)): > 7.00

Further lines, with some results ahead:

Row | pIC50 [1, 10] | pIC50 (GP2d cells (KRAS G12D); GP2d) | pIC50 [2, 11] | pIC50 [3, 12] | pIC50 [4, 13] | pIC50 (SW620 cells (KRAS G12V); [14]) | pIC50 ([1]; KRAS G12V-GppNHp/RAF1 RBD HTRF) | pIC50 ([2]; KRAS WT-GppNHp/RAF1 RBD HTRF) | pIC50 ([3]; KRAS G12D-GppNHp/RAF1 RBD HTRF) | pIC50 ([4]; KRAS G12R-GppNHp/RAF1 RBD HTRF) | Compound | other results
8 |  | > 7.00 |  |  |  | > 7.00 | 6.00 to 7.00 | 6.00 to 7.00 | 6.00 to 7.00 | 6.00 to 7.00 | N#Cc1c(N)sc2c(F)ccc(-c3c(C(F)(F)F)cc4c(N5CC6OCC5C6F)nc(OC[C@@]56CCCN5C[C@H](F)C6)nc4c3F)c12 (stereo partly drawn) [Compound 531] | 
9 |  | > 7.00 |  |  |  | 6.00 to 7.00 | 5.00 to 6.00 | 6.00 to 7.00 | 6.00 to 7.00 | 6.00 to 7.00 | N#Cc1c(N)sc2c(F)ccc(-c3c(C(F)(F)F)cc4c(N5CCC[C@H](CO)C5)nc(OC[C@@]56CCCN5C[C@H](F)C6)nc4c3F)c12 [Compound 310] | 
10 | 5.00 to 6.00 | 6.00 to 7.00 | 5.00 to 6.00 | 5.00 to 6.00 | 5.00 to 6.00 | 6.00 to 7.00 |  |  |  |  | C[C@H]1[C@@H](N(C)c2nc(OC[C@@]34CCCN3C[C@H](F)C4)nc3c(F)c(-c4ccc(F)c5sc(N)c(C#N)c45)c(C(F)(F)F)cc23)CCN1C(=O)CC#N [Compound 252] | 
11 |  | > 7.00 |  |  |  | 6.00 to 7.00 | 5.00 to 6.00 | 5.00 to 6.00 | 6.00 to 7.00 | 5.00 to 6.00 | CC(=O)N1C[C@@H](N(C)c2nc(OC[C@@]34CCCN3C[C@H](F)C4)nc3c(F)c(-c4ccc(F)c5sc(N)c(C#N)c45)c(C(F)(F)F)cc23)C[C@H]1CC#N [Compound 503] | 
